According to patent US9393276B2, “Edible composition” (Conopco,Inc., priority 2012, dated 2016):

What was measured:
[1] = tested on: Rat Insulinoma cell lines (RIN-5F); conditions: 24 h
Experimental: Before starting the experiment it was needed to determine the cytotoxic dose for the Inula racemosa extract and theobromine. The cytotoxicity of both materials was determined as follows by Neutral red assay:
The Rat Insulinoma cell lines (RIN-5F, ATCC (USA)) was plated at a density of 3.5×10^4 cells/well (Volume 100 μL) in a 96 well plate (NEST Biotechnology Co. Ltd, Cat No 701001) and placed it in an incubator (Thermo Scientific, Model 3111; conditions: 5% CO2, at 37° C.) for 24 hours. After the incubation 10 μL of Inula racemosa water extract (at different concentration e.g. 10%, 1%, 0.1%, 0.01%, 0.001%, 0.0001% and 0.00001%) and 10 μL of theobromine solution (at different concentration e.g. 10%, 1%, 0.1%, 0.01%, 0.001%, 0.0001% and 0.00001%) were added to the culture and incubated for 24 hours in the same incubator. As a control in some wells there was no addition of either Inula racemosa or theobromine (only medium and cells). […]
The bound stain was extracted out from the cells by adding 150 μL of desorption solution and dissolved the dye completely. […] The absorbance of the stain extracted out from the cells was measured at 540 nm in a microwell plate reader (BIO-RAD LAB INDIA, Model No. 680).
The percentage of live cells was calculated using the below mentioned formula: […]

[2] = tested on: Rat Insulinoma cell lines (RIN-5F); test: β-cell assay for protection against gluco-lipo toxicity (diabetes model); type: cell-based; conditions: RIN-5F cells treated with glucose and Palmitate-BSA complex, 18 hrs, neutral red; change with respect to Control 2 (glucose and Palmitate only); wt % of ingredients as per example
Experimental: This RPMI 1640 medium contains 2 g/L of glucose supplemented with 25 mM HEPES (4-(2-hydroxyethyl)-1-piperazineethanesulfonic acid, SRL Cat No: 084023C).
After that a complete medium was prepared by adding 100 μL of 100 mM Sodium pyruvate (Sigma, Cat No: P5280) and 10% (vv) in 100 mL of RPMI 1640.
100 μL/well of complete medium with the added Rat Insulinoma cell (RIN-5F, ATCC (USA)) was plated in a 96 well flat bottom plate (NEST Biotechnology Co. Ltd, Cat No 701001) so that the cell concentration is maintained at a level of 3.5×10^4 cells/well. This plate was then introduced in an incubator (Thermo Scientific, Model 3111; conditions: 5% CO2, at 37° C.) for 24 hours.
2.267 g of ultra Fatty Acid Free BSA (Roche applied sciences, Cat No: 03117405001) was added to 100 mL of 150 mM NaCl and stirred constantly at a maintained temperature of ˜37° C. […] After that this solution was filtered with a syringe filter of pore size of 0.22 μm (Millipore®, Cat no: SLGPO33RS). • 3. […]
After 4 hrs the neutral red medium was removed by aspiration using a micropipette and cells were washed with 100 μL/well of PBS solution (same as prepared above) to remove the excess stain. […] The colorimetric reading (absorbance) of the bound stain was read at a wavelength of 540 nm in a microwell plate reader (BIO-RAD LAB INDIA, Model No. 680). The efficacy of the test ingredients were evaluated with respect to the Control 2.

Row | SMILES | non-cytotoxic concentration [1] [%] | % change in cell viability [2] [%]
1 | Cn1cnc2c1c(=O)[nH]c(=O)n2C [theobromine, 3,7-dimethylxanthine] | ≤ 0.001 | –
2 | Cn1cnc2c1c(=O)[nH]c(=O)n2C [E, Theobromine] | – | 5 ± 2
